Laboratory results from US20150282488A1, “COMPOSITIONS AND METHODS FOR CONTROLLING PLANT-PARASITE NEMATODE” (BAYER CROPSCIENCE LP, priority 2012, published 2015).

System: R. reniformis
Experiment: Greenhouse trial with treated cotton seeds in autoclaved soil
Assay type: in vivo, Rotlyenchulus reniformis
Conditions: seed treatment 500 g ai/100 kg
Text: Anti-nematodal activity is understood as meaning any activity useful in controlling or killing nematodes, such as reducing nematode egg hatching or paralyzing juveniles of nematodes. Testing for anti-nematodal activity is done both in-vitro and in-vivo through laboratory and greenhouse procedures. In-vitro testing can involve testing eggs and/or juvenile nematodes in selective media in small 96-well plates and measurements done by microscopic evaluations. Proper control treatments would be combined to monitor and compare activity. Under greenhouse studoes soil was autoclaved using two 90 minute cycles at 130° C. at […] pressure with a 24 hour cool down between cycles to remove any natural competition for the microflora. The vermiform stages were extracted from the soil by the modified gravity screening and sucrose centrifugation-flotation. Eggs stages were extracted from cotton roots by shaking the root system in a 1% NaOCl solution for four minutes at 120 rpm. The nematode suspension was collected and rinsed with water through a 25 μm sieve. Females in roots were stained with acid fuschin to facilitate enumeration of the females invading the root. Variables measured included plant height, shoot and root weights, females and eggs per gram of root, and the number of vermiform life stages in soil. […]
Rotlyenchulus reniformis vermiform life stages were extracted from the soil by modified gravity screening and sucrose centrifugation-flotation. […] Vermiform life stages and eggs were counted under an inverted TS 100 Nikon microscope at 40× magnification. Females embedded in the root systems were quantified at 5× magnification utilizing the Nikon SMZ800 […] microscope. Variables measured were plant height, shoot and root weight, females and eggs per gram of root, and the number of vermiform life stages in 500 cm^3 of soil. […] Data were analyzed in SAS 9.1 (SAS Institute Inc.). The distributional assumption was evaluated with the student panel graphs of the GLIMMIX procedure. […]

Question: With `O=[N+]([O-])NC1=NCCN1Cc1ccc(Cl)nc1` [imidacloprid] as the molecule, how does the “effect on R. reniformis life stages” value read?
Answer: The value was “did not have any effect”.

Question: What about the “effect on cotton plant growth” value of the same molecule?
Answer: Its value is “did not have any effect”.

Question: What about the nematicidal activity of the same molecule?
Answer: The nematicidal activity was “did not show any nematicidal activity”.
